Patent publication US20160251289A1, “USE OF ALKANE SULFONIC ACID FOR PREPARING PHENOLIC ALCOHOL” (ARKEMA FRANCE, priority 2013, published 2016)
Where two headings read alike, the source gives them in different places.

Experiments:
[1] = for Solubility (mass %): phenol/water (95/5) weight mixture; for times more soluble than potassium sulfate: phenol/water (95/5)
Description: Solubility of the Salts in a Phenol/Water (95/5) Weight Mixture:
A first measurement is taken at 55° C. at atmospheric pressure, and a second measurement is then taken at 100° C.

[2] = for Solubility (mass %): phenol/acetone/water (50/50/5) weight mixture; for times more soluble than potassium sulfate: phenol/acetone/water (50/50/5)
Description: 25 g of test solvent are placed in a 50 mL three-necked flask equipped with a condenser, a thermometer and a magnetic stirrer. The solvent is brought to the desired temperature and the alkanesulfonic acid salt is then added portionwise until cloudiness appears, indicating saturation of the medium.
The solubility is calculated in the following manner:
% salt solubility=m/(m+M)×100
with m=mass of dissolved salt, M=mass of solvent
1. Solubility of the Salts in a Phenol/Acetone/Water (50/50/5) Weight Mixture:
A first measurement is taken at 20° C. at atmospheric pressure, and a second measurement is then taken at 60° C. […] 1.1 Potassium Salts

**Q.** Which results are given for `CS(=O)(=O)[O-].[K+]` [CH3SO3K, potassium methanesulfonate]?
**A.** Solubility (mass %) ([1]; 55° C., atmospheric pressure): 1.90% mass %; Solubility (mass %) ([1]; 100° C.): 2.40% mass %; times more soluble than potassium sulfate ([1]; printed as at 20° C.): 15 times; times more soluble than potassium sulfate ([1]; printed as at 60° C.): 8 times; Solubility (mass %) ([2]; 20° C., atmospheric pressure): 0.80% mass %; Solubility (mass %) ([2]; 60° C.): 0.80% mass %; times more soluble than potassium sulfate ([2]; at 20° C.): more than 6.7 times; times more soluble than potassium sulfate ([2]; at 60° C.): more than 6.7 times
